Experimental data: ChEMBL document CHEMBL3616364, “Going Out on a Limb: Delineating The Effects of β-Branching, N-Methylation, and Side Chain Size on the Passive Permeability, Solubility, and Flexibility of Sanguinamide A Analogues” (J Med Chem, 2015)
Values after ≈ are worked out from the molar mass of the structure shown. Starred links: 1 amine or outer side, 2 acyl side, 3 side chain; linkers in the order of their positions; H or OH if unused. Non-standard residues stand in square brackets, D forms with d. Residues, ends and D or L forms follow the SMILES beside them. Ile(ψThz) = CC[C@H](C)[C@H](N[*:1])c1nc(C(=O)[*:2])cs1; LeuThz(4-CO) = CC(C)C[C@H](N[*:1])c1nc(C(=O)[*:2])cs1; ValThz = CC(C)[C@H](N[*:1])c1nc(C(=O)[*:2])cs1; NMeF = CN[C@@H](Cc1ccccc1)C(=O)O; NMeI = CC[C@H](C)[C@H](NC)C(=O)O; Tle = CC(C)(C)[C@H](N)C(=O)O; NMeA = CN[C@@H](C)C(=O)O

Legend:
[1] = Kinetic solubility of the compound in PBS at pH 7.4
[2] = Permeability of the compound at pH 7.4 at 10 uM after 10 hrs by LC-MS based PAMPA
[3] = Apparent permeability from apical to basolateral side in human Caco2 cells at 10 uM after 2 hrs by LC-MS/MS analysis; conditions: Caco-2
[4] = physchem; conditions: PBS
[5] = Retention time of the compound in isocratic acetonitrile/water by HPLC analysis; conditions: buffer

Row | SMILES | solubility kinetic [1] | Papp at 10 h, 10 µM [2] | Papp A→B at 2 h, 10 µM [3] | solubility thermodynamic at 48 h [4] | Retention_time [5]
1 | CC[C@H](C)[C@@H]1NC(=O)[C@@H]2CCCN2C(=O)[C@H](Cc2ccccc2)NC(=O)[C@H](C)NC(=O)c2csc(n2)[C@H]([C@@H](C)CC)NC(=O)[C@@H]2CCCN2C1=O (cyclo(AFPIP[Ile(ψThz)])) | 147 µM (≈ 106 µg/mL) | 5.3 ×10⁻⁶ cm/s | 1.3 ×10⁻⁶ cm/s | 107 µM (≈ 77.2 µg/mL) | 2.77 min
2 | CC[C@H](C)[C@@H]1NC(=O)[C@@H]2CCCN2C(=O)[C@H](Cc2ccccc2)NC(=O)[C@H](C)NC(=O)c2csc(n2)[C@H](CC(C)C)NC(=O)[C@@H]2CCCN2C1=O (cyclo(AFPIP[LeuThz(4-CO)])) | 182 µM (≈ 131 µg/mL) | 5.6 ×10⁻⁶ cm/s | 1.3 ×10⁻⁶ cm/s | 35 µM (≈ 25.3 µg/mL) | 2.87 min
3 | CC[C@H](C)[C@@H]1NC(=O)[C@@H]2CCCN2C(=O)[C@H]([C@@H](C)O)NC(=O)[C@@H]2CCCN2C(=O)[C@H](Cc2ccccc2)NC(=O)[C@H](C)NC(=O)c2csc1n2 (cyclo(AFPTP[Ile(ψThz)])) | 285 µM (≈ 202 µg/mL) | 0.2 ×10⁻⁶ cm/s | 0.4 ×10⁻⁶ cm/s |  | 1.02 min
4 | CC[C@H](C)[C@@H]1NC(=O)[C@@H]2CCCN2C(=O)[C@H](C(C)C)NC(=O)[C@@H]2CCCN2C(=O)[C@H](Cc2ccccc2)NC(=O)[C@H](C)NC(=O)c2csc1n2 (cyclo(AFPVP[Ile(ψThz)])) | 182 µM (≈ 129 µg/mL) | 4.9 ×10⁻⁶ cm/s | 0.3 ×10⁻⁶ cm/s | 236 µM (≈ 167 µg/mL) | 1.97 min
5 | CC[C@H](C)[C@@H]1NC(=O)[C@@H]2CCCN2C(=O)[C@H](Cc2ccccc2)N(C)C(=O)[C@H](C)NC(=O)c2csc(n2)[C@H]([C@@H](C)CC)NC(=O)[C@@H]2CCCN2C1=O (cyclo(A[NMeF]PIP[Ile(ψThz)])) | 105 µM (≈ 77.3 µg/mL) | 11 ×10⁻⁶ cm/s | 7.4 ×10⁻⁶ cm/s | 172 µM (≈ 127 µg/mL) | 3.03 min
6 | CC[C@H](C)[C@@H]1NC(=O)c2csc(n2)[C@H]([C@@H](C)CC)NC(=O)[C@@H]2CCCN2C(=O)[C@H]([C@@H](C)CC)NC(=O)[C@@H]2CCCN2C(=O)[C@H](Cc2ccccc2)NC1=O (cyclo(FPIP[Ile(ψThz)]I)) | 39 µM (≈ 29.8 µg/mL) | 6.1 ×10⁻⁶ cm/s | 9.6 ×10⁻⁶ cm/s | 6 µM (≈ 4.58 µg/mL) | 7.86 min
7 | CC[C@H](C)[C@@H]1NC(=O)[C@@H]2CCCN2C(=O)[C@H](Cc2ccccc2)NC(=O)[C@H](CC(C)C)NC(=O)c2csc(n2)[C@H]([C@@H](C)CC)NC(=O)[C@@H]2CCCN2C1=O (cyclo(FPIP[Ile(ψThz)]L)) | 39 µM (≈ 29.8 µg/mL) | 4.7 ×10⁻⁶ cm/s | 10.9 ×10⁻⁶ cm/s | 10 µM (≈ 7.64 µg/mL) | 9.13 min
8 | CC[C@H](C)[C@@H]1NC(=O)[C@@H]2CCCN2C(=O)[C@H](Cc2ccccc2)NC(=O)[C@H](C)N(C)C(=O)c2csc(n2)[C@H]([C@@H](C)CC)NC(=O)[C@@H]2CCCN2C1=O (cyclo(FPIP[Ile(ψThz)][NMeA])) | 333 µM (≈ 245 µg/mL) | 0.5 ×10⁻⁶ cm/s | 0.2 ×10⁻⁶ cm/s | 801 µM (≈ 589 µg/mL) | 1.48 min
9 | CC[C@H](C)[C@@H]1NC(=O)[C@@H]2CCCN2C(=O)[C@H](Cc2ccccc2)NC(=O)[C@H](C(C)(C)C)NC(=O)c2csc(n2)[C@H]([C@@H](C)CC)NC(=O)[C@@H]2CCCN2C1=O (cyclo(FPIP[Ile(ψThz)][Tle])) |  |  |  |  | 8.72 min
10 | CC[C@H](C)[C@@H]1NC(=O)[C@@H]2CCCN2C(=O)[C@H](Cc2ccccc2)N(C)C(=O)[C@H](CC(C)C)NC(=O)c2csc(n2)[C@H]([C@@H](C)CC)NC(=O)[C@@H]2CCCN2C1=O (cyclo(IP[Ile(ψThz)]L[NMeF]P)) | 133 µM (≈ 103 µg/mL) | 17.2 ×10⁻⁶ cm/s | 19.3 ×10⁻⁶ cm/s | 111 µM (≈ 86.4 µg/mL) | 5.06 min
11 | CC[C@H](C)[C@@H]1NC(=O)[C@@H]2CCCN2C(=O)[C@H](Cc2ccccc2)N(C)C(=O)[C@H](C(C)(C)C)NC(=O)c2csc(n2)[C@H]([C@@H](C)CC)NC(=O)[C@@H]2CCCN2C1=O (cyclo(IP[Ile(ψThz)][Tle][NMeF]P)) |  |  |  |  | 10.94 min
12 | CC[C@H](C)[C@@H]1NC(=O)c2csc(n2)[C@H]([C@@H](C)CC)NC(=O)[C@@H]2CCCN2C(=O)[C@H]([C@@H](C)CC)NC(=O)[C@@H]2CCCN2C(=O)[C@H](Cc2ccccc2)N(C)C1=O (cyclo(I[NMeF]PIP[Ile(ψThz)])) | 21 µM (≈ 16.3 µg/mL) | 1.5 ×10⁻⁶ cm/s | 21.2 ×10⁻⁶ cm/s | 12 µM (≈ 9.34 µg/mL) | 10 min

Results, then the compound that gave them:

Row | solubility kinetic [1] | Papp at 10 h, 10 µM [2] | Papp A→B at 2 h, 10 µM [3] | solubility thermodynamic at 48 h [4] | Retention_time [5] | SMILES
13 | 285 µM (≈ 202 µg/mL) | 4.8 ×10⁻⁶ cm/s | 3.7 ×10⁻⁶ cm/s | 205 µM (≈ 145 µg/mL) | 2.03 min | CC[C@H](C)[C@@H]1NC(=O)[C@@H]2CCCN2C(=O)[C@H](Cc2ccccc2)NC(=O)[C@H](C)NC(=O)c2csc(n2)[C@H](C(C)C)NC(=O)[C@@H]2CCCN2C1=O (cyclo(AFPIP[ValThz]))
14 | 133 µM (≈ 96 µg/mL) | 5.3 ×10⁻⁶ cm/s | 0.2 ×10⁻⁶ cm/s | 122 µM (≈ 88.1 µg/mL) | 2.19 min | CC[C@H](C)[C@@H]1NC(=O)[C@@H]2CCCN2C(=O)[C@H](CC(C)C)NC(=O)[C@@H]2CCCN2C(=O)[C@H](Cc2ccccc2)NC(=O)[C@H](C)NC(=O)c2csc1n2 (cyclo(AFPLP[Ile(ψThz)]))
15 |  | 1.3 ×10⁻⁶ cm/s | 0.4 ×10⁻⁶ cm/s |  | 1.79 min | CC[C@H](C)[C@@H]1NC(=O)[C@@H]2CCCN2C(=O)[C@H]([C@@H](C)CC)N(C)C(=O)[C@@H]2CCCN2C(=O)[C@H](Cc2ccccc2)NC(=O)[C@H](C)NC(=O)c2csc1n2 (cyclo(AFP[NMeI]P[Ile(ψThz)]))
16 | 133 µM (≈ 96 µg/mL) | 9.1 ×10⁻⁶ cm/s | 6.8 ×10⁻⁶ cm/s | 296 µM (≈ 214 µg/mL) | 2.24 min | CC[C@H](C)[C@@H]1NC(=O)[C@@H]2CCCN2C(=O)[C@H](C(C)C)NC(=O)[C@@H]2CCCN2C(=O)[C@H](Cc2ccccc2)N(C)C(=O)[C@H](C)NC(=O)c2csc1n2 (cyclo(A[NMeF]PVP[Ile(ψThz)]))
17 | 105 µM (≈ 75.8 µg/mL) | 4.7 ×10⁻⁶ cm/s | 2.2 ×10⁻⁶ cm/s | 148 µM (≈ 107 µg/mL) | 2.81 min | CC(C)[C@@H]1NC(=O)c2csc(n2)[C@H](C(C)C)NC(=O)[C@@H]2CCCN2C(=O)[C@H](C(C)C)NC(=O)[C@@H]2CCCN2C(=O)[C@H](Cc2ccccc2)NC1=O (cyclo(FPVP[ValThz]V))
